{
  "source": "PubChem BioAssay AID1259407",
  "about": "(Chemical Carcinogenesis Research Information System (CCRIS), 2018)",
  "tested_on": "CCRIS mutagenicity, Ames/micronucleus/aberration tests",
  "assay": "CCRIS mutagenicity studies",
  "key": {"[1]": {"conditions": "Test System: AMES SALMONELLA TYPHIMURIUM, Strain/Indicator: TA98, Metabolic Activation: NONE, Method: STANDARD PLATE"}, "[2]": {"conditions": "Test System: AMES SALMONELLA TYPHIMURIUM, Strain/Indicator: TA100, Metabolic Activation: NONE, Method: STANDARD PLATE"}, "[3]": {"conditions": "Test System: AMES SALMONELLA TYPHIMURIUM, Strain/Indicator: TA98, Metabolic Activation: NONE, Method: PREINCUBATION"}, "[4]": {"conditions": "Test System: AMES SALMONELLA TYPHIMURIUM, Strain/Indicator: TA100, Metabolic Activation: NONE, Method: PREINCUBATION"}},
  "note": "Active and inactive are the calls of the source. How the calls were made is not given here.",
  "data": [
    {"smiles": "Nc1c(N=Nc2ccc(-c3ccc(N=Nc4cc(S(=O)(=O)O)c5ccccc5c4N)cc3)cc2)cc(S(=O)(=O)O)c2ccccc12", "values": [
      {"measurement": "mutagenic call", "setting": "Test System: AMES SALMONELLA TYPHIMURIUM, Strain/Indicator: TA98, Metabolic Activation: HAMSTER, LIVER, S-9, Method: PREINCUBATION (PRIVAL METHOD)", "result": "active; positive"},
      {"measurement": "mutagenic call", "setting": "[1]", "result": "inactive; negative"},
      {"measurement": "mutagenic call", "setting": "Test System: AMES SALMONELLA TYPHIMURIUM, Strain/Indicator: TA98, Metabolic Activation: RAT, LIVER, S-9, PHENOBARBITAL, Method: STANDARD PLATE", "result": "inactive; negative"},
      {"measurement": "mutagenic call", "setting": "[2]", "result": "active; positive"},
      {"measurement": "mutagenic call", "setting": "Test System: AMES SALMONELLA TYPHIMURIUM, Strain/Indicator: TA100, Metabolic Activation: RAT, LIVER, S-9, PHENOBARBITAL, Method: STANDARD PLATE", "result": "inactive; negative"},
      {"measurement": "mutagenic call", "setting": "Test System: AMES SALMONELLA TYPHIMURIUM, Strain/Indicator: TA1538, Metabolic Activation: HAMSTER, LIVER, S-9, Method: STANDARD PLATE", "result": "inactive; negative"},
      {"measurement": "mutagenic call", "setting": "Test System: AMES SALMONELLA TYPHIMURIUM, Strain/Indicator: TA1538, Metabolic Activation: RAT, LIVER, S-9, AROCLOR 1254, Method: STANDARD PLATE", "result": "inactive; negative"},
      {"measurement": "mutagenic call", "setting": "Test System: Ames Salmonella typhimurium, Strain/Indicator: TA98, Metabolic Activation: Rat, Liver, S-9, Sodium phenobarbitone, Method: Preincubation", "result": "inactive; negative, test conducted under both aerobic and anaerobic conditions."},
      {"measurement": "mutagenic call", "setting": "Test System: Ames Salmonella typhimurium, Strain/Indicator: TA1538, Metabolic Activation: Rat, Liver, S-9, Sodium phenobarbitone, Method: Preincubation", "result": "inactive; negative, test conducted under both aerobic and anaerobic conditions."}
    ]},
    {"smiles": "COc1ccc(-c2nc(-c3ccc(OC)cc3)c(-c3ccc(OC)cc3)[nH]2)cc1", "values": [
      {"measurement": "mutagenic call", "setting": "[1]", "result": "active; positive"},
      {"measurement": "mutagenic call", "setting": "Test System: AMES SALMONELLA TYPHIMURIUM, Strain/Indicator: TA98, Metabolic Activation: RAT LIVER S-9, 3-METHYLCHOLANTHRENE, SODIUM PHENOBARBITAL, Method: STANDARD PLATE", "result": "inactive; negative"},
      {"measurement": "mutagenic call", "setting": "[2]", "result": "inactive; negative"},
      {"measurement": "mutagenic call", "setting": "Test System: AMES SALMONELLA TYPHIMURIUM, Strain/Indicator: TA100, Metabolic Activation: RAT LIVER S-9, 3-METHYLCHOLANTHRENE, SODIUM PHENOBARBITAL, Method: STANDARD PLATE", "result": "inactive; negative"}
    ]},
    {"smiles": "Nc1ccc(CO)c([N+](=O)[O-])c1", "values": [
      {"measurement": "mutagenic call", "setting": "[3]", "result": "active; positive"},
      {"measurement": "mutagenic call", "setting": "Test System: AMES SALMONELLA TYPHIMURIUM, Strain/Indicator: TA98, Metabolic Activation: RAT, LIVER, S-9, PHENOBARBITAL AND 5,6-BENZOFLAVONE, Method: PREINCUBATION", "result": "active; positive"},
      {"measurement": "mutagenic call", "setting": "[4]", "result": "active; positive"},
      {"measurement": "mutagenic call", "setting": "Test System: AMES SALMONELLA TYPHIMURIUM, Strain/Indicator: TA100, Metabolic Activation: RAT, LIVER, S-9, PHENOBARBITAL AND 5,6-BENZOFLAVONE, Method: PREINCUBATION", "result": "active; positive"}
    ]},
    {"smiles": "CCCCCNCCCCC", "values": [
      {"measurement": "mutagenic call", "setting": "Test System: AMES SALMONELLA TYPHIMURIUM, Strain/Indicator: TA98, Metabolic Activation: HAMSTER, LIVER, S-9, AROCLOR 1254 (10%), Method: PREINCUBATION", "result": "inactive; negative"},
      {"measurement": "mutagenic call", "setting": "[3]", "result": "inactive; negative"},
      {"measurement": "mutagenic call", "setting": "Test System: AMES SALMONELLA TYPHIMURIUM, Strain/Indicator: TA98, Metabolic Activation: RAT, LIVER, S-9, AROCLOR 1254 (10%), Method: PREINCUBATION", "result": "inactive; negative"},
      {"measurement": "mutagenic call", "setting": "Test System: AMES SALMONELLA TYPHIMURIUM, Strain/Indicator: TA100, Metabolic Activation: HAMSTER, LIVER, S-9, AROCLOR 1254 (10%), Method: PREINCUBATION", "result": "inactive; negative"},
      {"measurement": "mutagenic call", "setting": "[4]", "result": "inactive; negative"},
      {"measurement": "mutagenic call", "setting": "Test System: AMES SALMONELLA TYPHIMURIUM, Strain/Indicator: TA100, Metabolic Activation: RAT, LIVER, S-9, AROCLOR 1254 (10%), Method: PREINCUBATION", "result": "inactive; negative"},
      {"measurement": "mutagenic call", "setting": "Test System: AMES SALMONELLA TYPHIMURIUM, Strain/Indicator: TA1535, Metabolic Activation: HAMSTER, LIVER, S-9, AROCLOR 1254 (10%), Method: PREINCUBATION", "result": "inactive; negative"},
      {"measurement": "mutagenic call", "setting": "Test System: AMES SALMONELLA TYPHIMURIUM, Strain/Indicator: TA1535, Metabolic Activation: NONE, Method: PREINCUBATION", "result": "inactive; negative"},
      {"measurement": "mutagenic call", "setting": "Test System: AMES SALMONELLA TYPHIMURIUM, Strain/Indicator: TA1535, Metabolic Activation: RAT, LIVER, S-9, AROCLOR 1254 (10%), Method: PREINCUBATION", "result": "inactive; negative"},
      {"measurement": "mutagenic call", "setting": "Test System: AMES SALMONELLA TYPHIMURIUM, Strain/Indicator: TA1537, Metabolic Activation: HAMSTER, LIVER, S-9, AROCLOR 1254 (10%), Method: PREINCUBATION", "result": "inactive; negative"},
      {"measurement": "mutagenic call", "setting": "Test System: AMES SALMONELLA TYPHIMURIUM, Strain/Indicator: TA1537, Metabolic Activation: NONE, Method: PREINCUBATION", "result": "inactive; negative"},
      {"measurement": "mutagenic call", "setting": "Test System: AMES SALMONELLA TYPHIMURIUM, Strain/Indicator: TA1537, Metabolic Activation: RAT, LIVER, S-9, AROCLOR 1254 (10%), Method: PREINCUBATION", "result": "inactive; negative"}
    ]},
    {"smiles": "CO/N=C(\\C(=O)N[C@@H]1C(=O)N2C(C(=O)[O-])=C(C[n+]3ccn4ncccc43)CS[C@H]12)c1nsc(N)n1", "values": [
      {"measurement": "mutagenic call", "setting": "[1]", "result": "inactive; negative"},
      {"measurement": "mutagenic call", "setting": "Test System: AMES SALMONELLA TYPHIMURIUM, Strain/Indicator: TA98, Metabolic Activation: RAT, LIVER, S-9, SODIUM PHENOBARBITAL AND 5,6-BENZOFLAVONE, Method: STANDARD PLATE", "result": "inactive; negative"},
      {"measurement": "mutagenic call", "setting": "[2]", "result": "inactive; negative"},
      {"measurement": "mutagenic call", "setting": "Test System: AMES SALMONELLA TYPHIMURIUM, Strain/Indicator: TA100, Metabolic Activation: RAT, LIVER, S-9, SODIUM PHENOBARBITAL AND 5,6-BENZOFLAVONE, Method: STANDARD PLATE", "result": "inactive; negative"},
      {"measurement": "mutagenic call", "setting": "Test System: AMES SALMONELLA TYPHIMURIUM, Strain/Indicator: TA1535, Metabolic Activation: NONE, Method: STANDARD PLATE", "result": "inactive; negative"},
      {"measurement": "mutagenic call", "setting": "Test System: AMES SALMONELLA TYPHIMURIUM, Strain/Indicator: TA1535, Metabolic Activation: RAT, LIVER, S-9, SODIUM PHENOBARBITAL AND 5,6-BENZOFLAVONE, Method: STANDARD PLATE", "result": "inactive; negative"},
      {"measurement": "mutagenic call", "setting": "Test System: AMES SALMONELLA TYPHIMURIUM, Strain/Indicator: TA1537, Metabolic Activation: NONE, Method: STANDARD PLATE", "result": "inactive; negative"},
      {"measurement": "mutagenic call", "setting": "Test System: AMES SALMONELLA TYPHIMURIUM, Strain/Indicator: TA1537, Metabolic Activation: RAT, LIVER, S-9, SODIUM PHENOBARBITAL AND 5,6-BENZOFLAVONE, Method: STANDARD PLATE", "result": "inactive; negative"},
      {"measurement": "mutagenic call", "setting": "Test System: E. COLI, Strain/Indicator: WP2 UVRA, Metabolic Activation: NONE, Method: STANDARD PLATE", "result": "inactive; negative"},
      {"measurement": "mutagenic call", "setting": "Test System: E. COLI, Strain/Indicator: WP2 UVRA, Metabolic Activation: RAT, LIVER, S-9, SODIUM PHENOBARBITAL AND 5,6-BENZOFLAVONE, Method: STANDARD PLATE", "result": "inactive; negative"}
    ]},
    {"smiles": "O=C(NO)c1ccc(O)c(O)c1", "values": [
      {"measurement": "mutagenic call", "setting": "Test System: AMES SALMONELLA TYPHIMURIUM, Strain/Indicator: TA97, Metabolic Activation: NONE, Method: STANDARD PLATE", "result": "inactive; negative"},
      {"measurement": "mutagenic call", "setting": "Test System: AMES SALMONELLA TYPHIMURIUM, Strain/Indicator: TA97, Metabolic Activation: RAT, LIVER, S-9, DELOR 103, Method: STANDARD PLATE", "result": "active; positive"},
      {"measurement": "mutagenic call", "setting": "[1]", "result": "inactive; negative"},
      {"measurement": "mutagenic call", "setting": "Test System: AMES SALMONELLA TYPHIMURIUM, Strain/Indicator: TA98, Metabolic Activation: RAT, LIVER, S-9, DELOR 103, Method: STANDARD PLATE", "result": "inactive; negative"},
      {"measurement": "mutagenic call", "setting": "[2]", "result": "inactive; negative"},
      {"measurement": "mutagenic call", "setting": "Test System: AMES SALMONELLA TYPHIMURIUM, Strain/Indicator: TA100, Metabolic Activation: RAT, LIVER, S-9, DELOR 103, Method: STANDARD PLATE", "result": "inactive; negative"},
      {"measurement": "mutagenic call", "setting": "Test System: AMES SALMONELLA TYPHIMURIUM, Strain/Indicator: TA102, Metabolic Activation: NONE, Method: STANDARD PLATE", "result": "inactive; negative"},
      {"measurement": "mutagenic call", "setting": "Test System: AMES SALMONELLA TYPHIMURIUM, Strain/Indicator: TA102, Metabolic Activation: RAT, LIVER, S-9, DELOR 103, Method: STANDARD PLATE", "result": "inactive; negative"}
    ]}
  ]
}
